Laboratory results as given in US20250230193A1, “CYCLIC COMPOUND HAVING SELECTIVE KRAS INHIBITORY EFFECT ON HRAS AND NRAS” (CHUGAI SEIYAKU KABUSHIKI KAISHA, priority 2022, published 2025).

Columns and labels:
[1] = tested on: human lung cancer strain NCI-H441; test: cells; conditions: NCI-H441, 96 h, read-out: NCI-H441 IC50 (nM)
[2] = target: GDP-bound HRAS wild-type protein (Homo sapiens, UniProt P01112); test: Binding to HRAS by surface plasmon resonance (SPR), Single Cycle Kinetics; conditions: SPR; KD ratio class
Chain of GDP-bound HRAS wild-type protein (P01112 whole entry): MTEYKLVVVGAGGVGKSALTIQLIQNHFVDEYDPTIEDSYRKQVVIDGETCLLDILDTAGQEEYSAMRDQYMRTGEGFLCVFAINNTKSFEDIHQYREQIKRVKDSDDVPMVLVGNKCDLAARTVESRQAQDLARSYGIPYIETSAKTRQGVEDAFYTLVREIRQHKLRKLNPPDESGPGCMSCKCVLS

[3] = target: GDP-bound NRAS wild-type protein (Homo sapiens, UniProt P01111); test: Binding to NRAS by surface plasmon resonance (SPR), Single Cycle Kinetics; conditions: SPR; KD ratio class
Chain of GDP-bound NRAS wild-type protein (P01111 whole entry): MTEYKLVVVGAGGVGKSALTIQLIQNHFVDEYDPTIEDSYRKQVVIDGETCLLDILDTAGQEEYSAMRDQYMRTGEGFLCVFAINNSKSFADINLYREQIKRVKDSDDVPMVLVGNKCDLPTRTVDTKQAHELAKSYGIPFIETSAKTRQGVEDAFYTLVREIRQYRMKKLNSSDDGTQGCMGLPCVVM

Row | SMILES | IC50 [1] | HRAS/KRAS (ratio of KD value for GDP-bound HRAS wild-type protein to KD value for KRAS) [2] | NRAS/KRAS (ratio of KD value for GDP-bound NRAS wild-type protein to KD value for KRAS) [3]
1 | CC[C@H](C)[C@@H]1NC(=O)[C@H](CC2CC2)N(C)C(=O)C[C@@H](C(=O)N2CCCC2)N(C)C(=O)[C@H](C2CCCC2)N(C)C(=O)C2(CCCC2)NC(=O)[C@@H]2C[C@@H](C(F)(F)F)CN2C(=O)[C@H](CCc2cc(F)c(C(F)(F)F)c(F)c2)NC(=O)CN(C)C(=O)[C@H](Cc2ccc(C(F)(F)F)cc2)N2CC/C=C\C[C@@H](C2=O)N(C)C(=O)CN(C)C1=O [PP1506] | 73.4 nM | A (a compound having 10 or more and less than 20 is denoted as A) | AA (a compound having 20 or more is denoted as AA)
2 | CC[C@H](C)[C@@H]1NC(=O)[C@H](CC2CC2)N(C)C(=O)C[C@@H](C(=O)N(C)C)N(C)C(=O)[C@H](C2CCCC2)N(C)C(=O)C2(CC(C)(C)C2)NC(=O)[C@@H]2C[C@@H](C(F)(F)F)CN2C(=O)[C@H](CCc2cc(F)c(C(F)(F)F)c(F)c2)NC(=O)CN(C)C(=O)[C@H](Cc2ccc(F)cc2)N2CC/C=C\C[C@@H](C2=O)N(C)C(=O)CN(C)C1=O [PP1507] | 16.2 nM | A (a compound having 10 or more and less than 20 is denoted as A) | A (a compound having 10 or more and less than 20 is denoted as A)
3 | CC[C@H](C)[C@@H]1NC(=O)[C@H](CC2CCCC2)N(C)C(=O)C[C@@H](C(=O)N(C)C)N(C)C(=O)[C@H](C2CCCC2)N(C)C(=O)C2(CCC2)NC(=O)[C@@H]2C[C@@H](C(F)(F)F)CN2C(=O)[C@H](CCc2cc(F)c(C(F)(F)F)c(F)c2)NC(=O)CN(C)C(=O)[C@H](Cc2ccc(F)cc2)N2CC/C=C\C[C@@H](C2=O)N(C)C(=O)CN(C)C1=O [PP1508] | 28.1 nM | A (a compound having 10 or more and less than 20 is denoted as A) | A (a compound having 10 or more and less than 20 is denoted as A)
4 | CCO[C@@H]1C[C@H]2C(=O)NC3(CCC3)C(=O)N(C)[C@@H](C(CC)CC)C(=O)N(C)[C@H](C(=O)N(C)C)CC(=O)N(C)[C@@H](CC3CCCC3)C(=O)N[C@@H]([C@@H](C)CC)C(=O)N(C)CC(=O)N(C)[C@H]3C/C=C\CCN(C3=O)[C@@H](Cc3ccc(F)cc3C)C(=O)N(C)CC(=O)N[C@@H](CCc3cc(F)c(C(F)(F)F)c(F)c3)C(=O)N2C1 [PP1516] | 45.7 nM | B (a compound having 3 or more and less than 10 is denoted as B) | A (a compound having 10 or more and less than 20 is denoted as A)
5 | CCO[C@@H]1C[C@H]2C(=O)NC3(CCC3)C(=O)N(C)[C@@H](C(CC)CC)C(=O)N(C)[C@H](C(=O)N(C)C)CC(=O)N(C)[C@@H](CC3CCCC3)C(=O)N[C@@H]([C@@H](C)CC)C(=O)N(C)CC(=O)N(C)[C@H]3C/C=C\CCN(C3=O)[C@@H](Cc3ccc(F)cc3)C(=O)N(C)CC(=O)N[C@@H](CCc3cc(F)c(C(F)(F)F)c(F)c3)C(=O)N2C1 [PP1517] | 33.6 nM | A (a compound having 10 or more and less than 20 is denoted as A) | A (a compound having 10 or more and less than 20 is denoted as A)
6 | CCO[C@@H]1C[C@H]2C(=O)NC3(CCC3)C(=O)N(C)[C@@H](C(CC)CC)C(=O)N(C)[C@H](C(=O)N(C)C)CC(=O)N(C)[C@@H](CC(C)C)C(=O)N[C@@H]([C@@H](C)CC)C(=O)N(C)CC(=O)N(C)[C@H]3C/C=C\CCN(C3=O)[C@@H](Cc3ccc(F)cc3C)C(=O)N(C)CC(=O)N[C@@H](CCc3cc(F)c(C(F)(F)F)c(F)c3)C(=O)N2C1 [PP1518] | 49.4 nM | B (a compound having 3 or more and less than 10 is denoted as B) | A (a compound having 10 or more and less than 20 is denoted as A)
7 | CCO[C@@H]1C[C@H]2C(=O)NC3(CCC3)C(=O)N(C)[C@@H](C(CC)CC)C(=O)N(C)[C@H](C(=O)N(C)C)CC(=O)N(C)[C@@H](CC(C)C)C(=O)N[C@@H]([C@@H](C)CC)C(=O)N(C)CC(=O)N(C)[C@H]3C/C=C\CCN(C3=O)[C@@H](Cc3ccc(F)cc3)C(=O)N(C)CC(=O)N[C@@H](CCc3cc(F)c(C(F)(F)F)c(F)c3)C(=O)N2C1 [PP1519] | 78.2 nM | A (a compound having 10 or more and less than 20 is denoted as A) | A (a compound having 10 or more and less than 20 is denoted as A)

The next lines start with results.

Row | IC50 [1] | SMILES | HRAS/KRAS (ratio of KD value for GDP-bound HRAS wild-type protein to KD value for KRAS) [2] | NRAS/KRAS (ratio of KD value for GDP-bound NRAS wild-type protein to KD value for KRAS) [3]
8 | 38 nM | CC[C@H](C)[C@@H]1NC(=O)[C@H](CC2CC2)N(C)C(=O)C[C@@H](C(=O)N(C)C)N(C)C(=O)[C@H](C2CCCC2)N(C)C(=O)C2(CC(C)(C)C2)NC(=O)[C@@H]2C[C@@H](C(F)(F)F)CN2C(=O)[C@H](CCc2cc(F)c(C(F)(F)F)c(F)c2)NC(=O)CN(C)C(=O)[C@H](Cc2ccc(C(F)(F)F)cc2)N2CC/C=C\C[C@@H](C2=O)N(C)C(=O)CN(C)C1=O [PP1504] | A (a compound having 10 or more and less than 20 is denoted as A) | A (a compound having 10 or more and less than 20 is denoted as A)
9 | 67.9 nM | CC[C@H](C)[C@@H]1NC(=O)[C@H](CC2CC2)N(C)C(=O)C[C@@H](C(=O)N2CCCC2)N(C)C(=O)[C@H](C2CCCC2)N(C)C(=O)C2(CCCC2)NC(=O)[C@@H]2C[C@@H](C(F)(F)F)CN2C(=O)[C@H](CCc2cc(F)c(C(F)(F)F)c(F)c2)NC(=O)CN(C)C(=O)[C@H](Cc2ccc(F)cc2)N2CC/C=C\C[C@@H](C2=O)N(C)C(=O)CN(C)C1=O [PP1509] | A (a compound having 10 or more and less than 20 is denoted as A) | A (a compound having 10 or more and less than 20 is denoted as A)
10 | 72.7 nM | CCO[C@@H]1C[C@H]2C(=O)NC3(CCC3)C(=O)N(C)[C@@H](C(CC)CC)C(=O)N(C)[C@H](C(=O)N(C)C)CC(=O)N(C)[C@@H](CC3CC3)C(=O)N[C@@H]([C@@H](C)CC)C(=O)N(C)CC(=O)N(C)[C@H]3C/C=C\CCN(C3=O)[C@@H](Cc3ccc(F)cc3C)C(=O)N(C)CC(=O)N[C@@H](CCc3cc(F)c(C(F)(F)F)c(F)c3)C(=O)N2C1 [PP1514] | A (a compound having 10 or more and less than 20 is denoted as A) | A (a compound having 10 or more and less than 20 is denoted as A)
